For this test, the target named is Phosphatidylinositol 4-kinase type 2-alpha (Homo sapiens, UniProt Q9BTU6). The test is described as follows: Inhibition of Phosphatidylinositol 4-kinase of human epidermoid carcinoma A431 cells.
Phosphatidylinositol 4-kinase type 2-alpha, sequence (Q9BTU6 whole entry): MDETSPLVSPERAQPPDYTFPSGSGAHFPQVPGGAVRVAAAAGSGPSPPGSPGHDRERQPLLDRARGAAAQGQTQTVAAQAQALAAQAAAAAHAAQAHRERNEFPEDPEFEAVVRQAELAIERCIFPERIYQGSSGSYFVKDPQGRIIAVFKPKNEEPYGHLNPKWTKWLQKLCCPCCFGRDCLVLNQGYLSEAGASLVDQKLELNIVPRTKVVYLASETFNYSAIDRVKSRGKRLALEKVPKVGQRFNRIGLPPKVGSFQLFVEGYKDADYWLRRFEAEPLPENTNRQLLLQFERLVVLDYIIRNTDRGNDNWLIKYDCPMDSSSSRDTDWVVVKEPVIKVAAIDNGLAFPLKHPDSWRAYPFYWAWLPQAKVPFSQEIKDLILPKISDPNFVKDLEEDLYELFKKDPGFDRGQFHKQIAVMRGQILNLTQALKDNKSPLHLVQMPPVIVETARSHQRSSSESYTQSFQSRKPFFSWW

Regarding `N=C(N)CCNC(=O)c1c[nH]c2nc(N)nc(O)c12` [ECHIGUANINE A], half-maximal inhibition (IC50) required 113 nM.

These data come from BindingDB's records for doi:10.7270/Q2XG9T96 (n/a, 1997).
